The source of these data is ChEMBL document CHEMBL1641432, “Design and synthesis of 3-pyridylacetamide derivatives as dipeptidyl peptidase IV (DPP-4) inhibitors targeting a bidentate interaction with Arg125” (Bioorg Med Chem, 2011).

In one series the target is Dipeptidyl peptidase 2 (Rattus norvegicus, UniProt Q9EPB1). Nature of the series: Inhibition of rat kidney DDP2 after 60 mins by spectrophotometry.
The next series addresses Dipeptidyl peptidase 8 (Homo sapiens, UniProt Q6V1X1). As to the kind of experiment: Inhibition of human DDP8 expressed in HEK293-F cells after 90 mins by spectrophotometry. In kind it is cell-based.
Series [1] has as its system Canis familiaris. As to the kind of experiment: Ex vivo inhibition of DDP4 in dog plasma at 0.5 mg/kg, po after 24 hrs. The settings on record: Canis lupus familiaris. In kind it is functional.
Series [2] in a line: Mean residence time in rat at 1 mg/kg, po by LC/MS/MS analysis. The class given is ADME, organism-based. On the set-up: dose 1 mg/kg, route oral. The settings on record: in vivo.
Series [3] is described as follows: Mean residence time in dog at 1 mg/kg, po by LC/MS/MS analysis. The class given is ADME, organism-based, Canis lupus familiaris. On the set-up: dose 1 mg/kg, route oral. The settings on record: in vivo.
Series [4] can be described thus: Bioavailability in rat at 0.1 mg/kg, iv and 1 mg/kg, po by LC/MS/MS analysis. The class given is ADME, organism-based. The settings on record: in vivo.
The nature of series [5]: Bioavailability in dog at 0.1 mg/kg, iv and 1 mg/kg, po by LC/MS/MS analysis. The settings on record: in vivo. The class given is ADME, organism-based, Canis lupus familiaris.
Series [6] in a line: Metabolic stability in rat hepatic microsomes assessed per mg of protein at 1 uM. The class given is ADME, Liver.
The nature of series [7]: Metabolic stability in dog hepatic microsomes assessed per mg of protein at 1 uM. The class given is ADME, Canis lupus familiaris, Liver.
Series [8] is described as follows: Metabolic stability in human hepatic microsomes assessed per mg of protein at 1 uM. In kind it is ADME, Liver.
A short description of series [9]: Solubility of the compound at pH 1.2 after 2 hrs. In kind it is physicochemical. The settings on record: buffer.
The nature of series [10]: Solubility of the compound at pH 6.8 after 2 hrs. In kind it is physicochemical. The settings on record: buffer.
For series [11], the species on record is Canis familiaris. The settings on record: Canis lupus familiaris; Plasma; 0.5 mg/kg.
Description: Ex vivo inhibition of DDP4 in dog plasma at 0.5 mg/kg, po up to 1 hr

By IC50 is commonly meant the concentration needed to halve the response being measured. Higher therefore signals a need for much substance. What is called inhibition in vivo is the percentage by which the read-out fell short of the control. High values mean a response far below the control, low ones a response near the control. As usually defined, the MRT is the average time that molecules of a dose stay in the body. In general, bioavailability refers to dose-corrected exposure relative to a reference, in per cent. Higher therefore signals good availability. Broadly, the solubility is the dissolved amount per volume that the medium holds. Lower therefore signals little dissolved substance.

Active and inactive are the calls of the source. The calls are words filed in the database; no cut-off is given here. Bounds are passed on as bounds.

Chain of Dipeptidyl peptidase 8 (Q6V1X1 whole entry): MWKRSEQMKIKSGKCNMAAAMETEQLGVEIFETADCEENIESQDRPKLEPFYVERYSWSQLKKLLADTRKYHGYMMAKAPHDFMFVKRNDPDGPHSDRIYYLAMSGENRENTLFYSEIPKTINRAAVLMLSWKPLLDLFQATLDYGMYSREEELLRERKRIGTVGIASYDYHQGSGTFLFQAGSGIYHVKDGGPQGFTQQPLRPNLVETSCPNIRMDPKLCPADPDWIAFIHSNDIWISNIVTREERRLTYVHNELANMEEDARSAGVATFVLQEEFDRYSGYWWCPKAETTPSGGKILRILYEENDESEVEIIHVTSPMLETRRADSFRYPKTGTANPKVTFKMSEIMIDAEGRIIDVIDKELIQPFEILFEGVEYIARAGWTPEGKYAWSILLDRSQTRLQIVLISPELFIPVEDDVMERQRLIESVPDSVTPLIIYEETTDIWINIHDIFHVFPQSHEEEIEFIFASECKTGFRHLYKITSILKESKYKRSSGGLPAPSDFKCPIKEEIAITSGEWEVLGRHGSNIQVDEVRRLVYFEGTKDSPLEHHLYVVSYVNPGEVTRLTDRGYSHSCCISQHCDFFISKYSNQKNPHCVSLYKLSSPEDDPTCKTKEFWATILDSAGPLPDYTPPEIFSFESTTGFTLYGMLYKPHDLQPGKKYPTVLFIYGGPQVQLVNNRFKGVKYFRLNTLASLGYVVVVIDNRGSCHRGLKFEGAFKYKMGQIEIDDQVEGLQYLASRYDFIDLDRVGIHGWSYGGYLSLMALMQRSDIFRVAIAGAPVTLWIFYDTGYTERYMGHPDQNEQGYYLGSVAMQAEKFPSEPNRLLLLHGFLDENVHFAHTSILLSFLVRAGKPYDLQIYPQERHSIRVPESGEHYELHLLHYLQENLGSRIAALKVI
Chain of Dipeptidyl peptidase 2 (Q9EPB1 whole entry): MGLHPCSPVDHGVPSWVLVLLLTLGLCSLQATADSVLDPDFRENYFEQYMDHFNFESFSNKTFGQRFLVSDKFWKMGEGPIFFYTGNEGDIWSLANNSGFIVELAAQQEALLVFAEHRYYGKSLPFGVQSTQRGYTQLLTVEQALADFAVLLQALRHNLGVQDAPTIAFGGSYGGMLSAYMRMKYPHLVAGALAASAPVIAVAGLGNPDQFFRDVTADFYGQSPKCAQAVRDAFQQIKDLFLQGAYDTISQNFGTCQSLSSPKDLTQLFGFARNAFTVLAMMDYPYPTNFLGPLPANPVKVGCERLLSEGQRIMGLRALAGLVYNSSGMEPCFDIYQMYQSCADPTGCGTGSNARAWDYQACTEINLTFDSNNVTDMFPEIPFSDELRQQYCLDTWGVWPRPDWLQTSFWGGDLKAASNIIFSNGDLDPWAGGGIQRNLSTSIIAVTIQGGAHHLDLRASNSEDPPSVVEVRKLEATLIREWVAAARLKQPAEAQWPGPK

Take `Cc1ccc(-c2c(CC(=O)N3CCC[C@H]3C(N)=O)c(C)nc(CC(C)C)c2CN)cc1.Cl.Cl`: the figures for the IC50 against Dipeptidyl peptidase 2 and at Dipeptidyl peptidase 8 were more than 100 µM and more than 30 µM, respectively. The inhibition in vivo at 0.5 mg/kg with Canis familiaris [1] stood at 90%. Moreover, the results for the mean residence time (MRT) in series [2] and in series [3] were 11.2 h and 4.35 h, respectively. The bioavailability in series [4] was 4.9%; in series [5], 21.3%. Also, the Stability is less than 1 µL/min in series [6], 2 µL/min in series [7] and 4 µL/min in series [8]. The solubility at 2 h in series [9] came to 86 µg/mL; in [10] it was 71 µg/mL. Further, the inhibition entry in the series filed under Canis familiaris [11] is “Active”.
